Assay results published in US20240216401A1, “COMBINATION THERAPY BY USING AKR1C3-ACTIVATED COMPOUND WITH IMMUNE CHECKPOINT INHIBITOR” (OBI Pharma, Inc., priority 2021, published 2024).

System: HepG2 tumor
Test: Example 2: tumor volume, tumor weight and TGI in HepG2 tumor bearing humanized mice
Format: in vivo, Mus musculus
Settings: Example 2, D30
Method: 1. Species: Mus musculus • Strain: Advanced immunodeficiency mouse. • (NOD.CgPrkdc^scid Il2rg) • Source: Trineo Biotechnology Co., LTD.
Each group contains six mice. The human hepatocellular carcinoma cell line HepG2 were subcutaneously inoculated to the advanced immune-deficiency mice. Total of 42 mice were included in this study.
2.2. […] The subcutaneous injection volume was […].
3.1. […] The injection was performed using insulin syringe with the dosage of 0.3 mg/kg or 1 mg/kg and the injection volume was 5 mL/kg. […] The reference item was administered for G1. The procedure followed the standards of sample administration. The starting day of test item administration was denoted as the first experimental day (DO).
3.2. […] The injection was performed using insulin syringe with the dosage of 20 mg/kg and injection volume of 10 mL/kg. […] The procedure followed the standards of sample administration.
The measurement was performed from the next day of the inoculation. The tumor volumes were measured and recorded twice a week (Mon., Thur.). Tumor volume was calculated by ellipsoid equation according to the records ((major axis×minor axis×minor axis)×(π/6)).
Tumor volumes were used to calculate tumor growth inhibition (TGI) rates according to the following formula: TGI (%)=[1−(Ti−T0)/(Ci−C0)]×100, where Ti and Ci indicate the mean tumor volume in the treatment groups and vehicle group at the end of the experiment (Day 30). Whereas, T0 and C0 indicate the mean tumor volumes in the treatment group and vehicle group at the beginning of the experiment (Day 0).
Mice were sacrificed by CO2 euthanasia at the end of the study duration, and the connective tissue around tumor was resected. The tumor samples were then weighed and cut equally into three sections if the tumor weight over 400 mg. The tumor tissue was prepared for the isolation of tumor-infiltrating lymphocytes (TILs). The rest of one section was fixed in 10% formaldehyde and embedded in paraffin; the other was stored at a temperature below −70° C.

In the case of “anti-hPD-1: Anti-Human PD-1 antibody, Pembrolizumab, Merck & Co., Inc.”, the mean tumor volume (mean±SEM, anti-hPD-1 20 mg/kg IP alone (G4)) is reported as 983.84±266.44 mm^3 and the “mean tumor volume compared with vehicle (in words)” value (vs vehicle (G1), OBI-3424 high-dose 1 mg/kg (G3), anti-hPD-1 20 mg/kg (G4), combinations G5-G7) is reported as “No statistically significant difference”.
